Laboratory results from PMC4697807, “Novel Zn^2+ Modulated GPR39 Receptor Agonists Do Not Drive Acute Insulin Secretion in Rodents” (PLoS ONE, 2015).

Key:
GPR39 [1] = target: T1, GPR39 (Homo sapiens, UniProt O43194); experiment: DMR positive allosteric modulator (PAM) experiments, compound and Zn^2+ interdependencies; format: cell-based; set-up: Full length human (AF034633), rat (DM091294) and mouse (BC085285) GPR39; expressed in transfected cells
T1 sequence (O43194 1-453): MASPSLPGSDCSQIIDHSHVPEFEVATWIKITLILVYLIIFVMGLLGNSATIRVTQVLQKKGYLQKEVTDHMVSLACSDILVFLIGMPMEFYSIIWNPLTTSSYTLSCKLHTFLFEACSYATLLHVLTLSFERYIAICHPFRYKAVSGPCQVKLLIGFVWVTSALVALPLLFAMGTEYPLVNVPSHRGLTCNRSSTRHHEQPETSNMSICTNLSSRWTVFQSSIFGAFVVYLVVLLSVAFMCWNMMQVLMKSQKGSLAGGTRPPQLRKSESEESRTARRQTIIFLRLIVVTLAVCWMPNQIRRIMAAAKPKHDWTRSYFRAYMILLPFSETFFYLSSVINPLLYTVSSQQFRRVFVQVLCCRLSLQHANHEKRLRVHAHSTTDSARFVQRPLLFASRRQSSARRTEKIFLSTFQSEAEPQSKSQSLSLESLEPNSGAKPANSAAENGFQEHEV
Protocol: DMR assays were performed using an Epic instrument (Corning Inc., Corning, NY). 12,000 cells per well were cultured for 24 h in 384-well fibronectin-coated Epic biosensor plates (Corning). On the day of experiment, culture medium was removed and replaced with 30 μl buffer A (HBSS, HEPES 20 mM pH7.4, 1% DMSO, 0.01% BSA) using an EL406 (Bio-Tek). Plates were incubated at 26 °C for 1 h inside the Epic to allow for temperature equilibration. A baseline was read for 2 min, and then 15 μl compounds in buffer A were added using a CyBi-Well vario (CyBio) and DMR was detected during 45 min.
Concentration response curves for the interaction between ortosteric and allosteric ligands in the DNR assay were globally fitted to the operational model of allosterism and agonism as described in Leach et al.. Binding data were fitted using one site or two site binding models.
Utilizing the DMR platform, positive allosteric modulator (PAM) experiments were performed in order to more accurately determine the influences of Zn^2+ on the three compounds, see Fig 4. Compound dose responses were generated at 10 different Zn^2+ concentrations, spanning 0 to 30 μM. The presence of Zn^2+ increased potencies of compounds up to 10000-fold. Data were initially globally fitted to the operational model of allosterism and agonism described by Leach et al. However, fits obtained were not of sufficient quality. We therefore decided to calculate modulation in a more simplistic way, here called PAM EC50 and defined as the concentration of modulator (Zn^2+) causing half maximum potentiation of agonist potency.

[2] = Isothermal titration calorimetry (ITC) of compound with ZnCl2; conditions: ITC at 30°C; single site binding model; ± SD; read-out: K D (Zn^2+-interaction)
Protocol: To determine the binding affinities of the discussed compounds for Zn^2+, isothermal titration calorimetry experiments were conducted on a MicroCal ITC-200 system (Malvern Instruments) at a temperature of 30°C. The compounds, provided as a DMSO stock solution of 10 mM, were diluted in 50 mM HEPES (pH 7.4) and 150 mM NaCl to reach a final nominal concentration of 400 μM (= 4% (v/v) final DMSO concentration). Complete titration of the compounds was typically achieved by injecting 27 x 1.3 μl aliquots of 5 mM ZnCl2 provided in a matching buffer. The thermodynamic binding parameters were extracted by non-linear regression analysis of the binding isotherms (Microcal Origin version 7.0 software package). A single site binding model was applied, yielding binding enthalpy (ΔH), stoichiometry (n), entropy (ΔS), and association constant (Ka). All experiments have been performed in triplicate to allow for error estimations.

GPR39 [3] = target: T1, GPR39; experiment: IP1 assay (HTRF), HEK293s-hGPR39 cells; format: cell-based; set-up: Full length human (AF034633), rat (DM091294) and mouse (BC085285) GPR39; expressed in transfected cells; host or cells: HEK293s (ATCC CRL-1573), pIRESneo3 vector, selected clones; conditions: for Efficacy at 33 μM: AZ1395 100% reference
Text: Full length human (AF034633), rat (DM091294) and mouse (BC085285) GPR39 (GeneArt–Life Technologies, Carlsbad, CA) were subcloned into the pIRESneo3 vector (Clontech, Mountain View, CA). The resulting expression vectors hGPR39-, rGPR39- and mGPR39-pIRESneo3 were transfected into HEK293s cells (ATCC CRL-1573) using Lipofectamine 2000 (Life Technologies). Individual clones were isolated using flow cytometry with a FACSVantage SE DIVA (Becton Dickinson, Franklin Lakes, NJ) and clones were chosen based on responses to Zn^2+ measured in a cAMP assay (see below). […] HEK293s-derived cell lines were cultured at 37°C, 10% CO2 and 95% humidity in DMEM supplemented with 10% FBS and 600 μg/ml Geneticin (Life Technologies). The mouse pancreas epithelial cell line NIT-1 (ATCC CRL-2055) with endogenous expression of GPR39 was cultured at 37°C, 5% CO2, and 95% humidity in Ham´s F12 (Life Technologies) supplemented with 10% FBS.
IP1 assays were performed using IP-One Tb kits (CisBio). IP1 production was detected by HTRF as described above. Buffers and reagents were according to manufacturers’ protocols except LiCl concentrations in stimulation buffer which were 50 mM in assays employing HEK293s-hGPR39 cells and 20 mM in assays using NIT-1 cells. For assays using HEK293s-hGPR39 cells, 12,500 cells per well were dispensed into small-volume 384-well plates (Greiner) and IP1 production was stimulated in the presence of compounds for 30 min at 37 °C in a total volume of 20 μl. For assays using NIT-1 cells, 25,000 cells per well were seeded into poly-D-lysine coated 384-well plates (Becton-Dickinson) and cultured in Ham´s F12 medium with 10% FBS. After 48 h, cells were washed with stimulation buffer and IP1 production stimulated in the presence of compounds for 45 min at 37 °C in a total volume of 60 μl.
Concentration response data were fitted with a four parameter logistic fit using Eq 1, y=A+((B−A)/1+((C/x)^D))) (1) where A is no activation, B is full activation, C is the EC50 and D is the Hill slope.

[4] = presence of 5 μM Zn^2+, read-out: pEC50 ± SD (converted)
[5] = absence (w/o) of Zn^2+, read-out: EC50

N#Cc1ccc(OCCn2ccnc2)c(OCCn2ccnc2)c1 [AZ1395, 3,4-bis-(2-imidazol-1-ylethoxy)-benzonitrile]
EC50 (GPR39 [1]; [Zn2+] μM: 0): 3 µM
EC50 (GPR39 [1]; [Zn2+] μM: 1e-7): 2.6 µM
EC50 (GPR39 [1]; [Zn2+] μM: 5e-7): 2.4 µM
EC50 (GPR39 [1]; [Zn2+] μM: 1e-6): 1.7 µM
EC50 (GPR39 [1]; [Zn2+] μM: 5e-6): 0.057 µM
EC50 (GPR39 [1]; [Zn2+] μM: 7e-6): 0.015 µM
EC50 (GPR39 [1]; [Zn2+] μM: 1e-5): 0.014 µM
EC50 (GPR39 [1]; [Zn2+] μM: 2e-5): 0.0035 µM
EC50 (GPR39 [1]; [Zn2+] μM: 3e-5): 0.0027 µM
EC50 (GPR39 [1]; [Zn2+] μM: 3): 0.16 µM
Emax (GPR39 [1]; in the absence of Zn^2+): ~75%
Kd [2]: 52100 ± 9100 nM
EC50 (GPR39 [3]; absence (w/o) of Zn^2+, read-out: pEC50 ± SD (converted)): 2880 nM
EC50 (GPR39 [3]; [4]): 19.1 nM

Cc1nc2c(C(=O)O)cnn2c(O)c1Cc1ccc(Cl)cc1 [AZ4237, 6-[(4-chlorophenyl)methyl]-7-hydroxy-5-methyl-pyrazolo[1,5-a]pyrimidine-3-carboxylic acid]
EC50 (GPR39 [1]; [Zn2+] μM: 0): > 33 µM
EC50 (GPR39 [1]; [Zn2+] μM: 1e-7): > 33 µM
EC50 (GPR39 [1]; [Zn2+] μM: 5e-7): > 33 µM
EC50 (GPR39 [1]; [Zn2+] μM: 1e-6): 8.3 µM
EC50 (GPR39 [1]; [Zn2+] μM: 5e-6): 0.058 µM
EC50 (GPR39 [1]; [Zn2+] μM: 7e-6): 0.045 µM
EC50 (GPR39 [1]; [Zn2+] μM: 1e-5): 0.015 µM
EC50 (GPR39 [1]; [Zn2+] μM: 2e-5): 0.0074 µM
EC50 (GPR39 [1]; [Zn2+] μM: 3e-5): 0.003 µM
EC50 (GPR39 [1]; [Zn2+] μM: 3): 0.58 µM
Kd [2]: 8720 ± 1060 nM
Efficacy at 33 μM (GPR39 [3]; absence (w/o) of Zn^2+): 66%
EC50 (GPR39 [3]; [5]): > 33000 nM
EC50 (GPR39 [3]; [4]): 33.9 nM

Cc1nc(-c2nc3c(c(=O)[nH]2)CN(C(=O)c2cccc(Cl)c2F)CC3)cs1 [AZ7914, 6-(3-chloro-2-fluoro-benzoyl)-2-(2-methylthiazol-4-yl)-3,5,7,8-tetrahydropyrido-[4,3-d]pyrimidin-4-one]
EC50 (GPR39 [1]; [Zn2+] μM: 0): > 33 µM
EC50 (GPR39 [1]; [Zn2+] μM: 1e-7): > 33 µM
EC50 (GPR39 [1]; [Zn2+] μM: 5e-7): > 33 µM
EC50 (GPR39 [1]; [Zn2+] μM: 1e-6): > 33 µM
EC50 (GPR39 [1]; [Zn2+] μM: 5e-6): 0.29 µM
EC50 (GPR39 [1]; [Zn2+] μM: 7e-6): 0.09 µM
EC50 (GPR39 [1]; [Zn2+] μM: 1e-5): 0.042 µM
EC50 (GPR39 [1]; [Zn2+] μM: 2e-5): 0.0095 µM
EC50 (GPR39 [1]; [Zn2+] μM: 3e-5): 0.0063 µM
EC50 (GPR39 [1]; [Zn2+] μM: 3): 1.6 µM
Kd [2]: 30600 ± 19100 nM
Efficacy at 33 μM (GPR39 [3]; absence (w/o) of Zn^2+): 45%
EC50 (GPR39 [3]; [5]): > 33000 nM
EC50 (GPR39 [3]; presence of 5 μM Zn^2+, read-out: EC50): 74 nM

[Zn+2] [Zn^2+]
Emax for Zn^2+ alone, of Emax for Zn^2+ together with any of the GPR39 agonists (GPR39 [1]; Zn^2+ alone): approximately 35%
pEC50 ± SD (GPR39 [3]; Zn^2+ by itself): (4.63 ± 0.08)
EC50 (GPR39 [3]; Zn^2+ by itself, read-out: EC50): 24000 nM
